Results as given in patent US20090012152A1, “Use of Tetramic Acid Derivatives for Controlling Insects from the Genus of the Plane Lice (Sternorrhyncha)” (Bayer CropScience Aktiengesellschaft, priority 2005, published 2009).

Tests used:
Assay type in all cases: in vivo
Rhodobium porosum = assay: Example 55: strawberry plants treated against Rhodobium porosum; settings: nymphs on strawberry plants, g a.i./ha: Calypso 120, I-4 75
Protocol: (§1) In four replications, plots of a size of about 3 m^2 with 3-week-old strawberry plants are treated against Macrosiphum euphorbiae and Rhodobium porosum. The application is carried out using a knapsack sprayer operated with pressurized air. Here, the active compound Example (I-4) (150 OD) and the commercial standard Calypso (480 SC) are tested at the stated application rates. Here, the standard is sprayed as a tank mix with 0.03% of Motto (adjuvant). The application rate is 500 l of water/ha.
(§2) Evaluation is carried out 7 and 14 days after the second treatment by rating the kill of the nymphs on the plants.

[1] = test system: Pseudaulacaspis pentagona; assay: Example 24: tea plants treated against Pseudaulacaspis pentagona; settings: crawlers on tea plants, % a.i.: Supracide EC 0.04, I-4 0.01
Protocol: In nine replications, about 7-week-old tea plants of the cultivar “Yakubita” are treated against Pseudaulacaspis pentagona. Here, the active compound Example (I-4) (200 SC) is tested against the commercial standard Supracide EC (400 EC) at the stated application rates. The application is carried out using a sprayer operated with pressurized air. Evaluation is carried out 16 and 35 days after the treatment by rating the kill of the crawlers on the plants.

Macrosiphum euphorbiae = assay: Example 55: strawberry plants treated against Macrosiphum euphorbiae; settings: nymphs on strawberry plants, g a.i./ha: Calypso 120, I-4 75
Protocol: as §1, §2

Orthezia praelonga = assay: Example 25: orange trees treated against Orthezia praelonga; settings: population on leaves, % a.i.: methidathion 0.05, I-4 0.0144, I-9 0.0144
Protocol: In two replications, two about 7-year-old orange trees of the cultivar “Pera Rio” are treated against Orthezia praelonga. Here, the active compounds Example (I-4) (240 SC) and Example (I-9) (240 SC), in a tank mix with 0.1% a.i. of Renex, are tested against the commercial standard Methidathion (400 EC), at the stated application rates. The application is carried out using a knapsack sprayer operated with pressurized air. Evaluation is carried out 6 and 16 days after the treatment by rating the kill of the population on the leaves.

Pseudococcus citri = assay: Example 26: citrus trees treated against Pseudococcus citri; settings: 62 days after treatment, larvae on fruits, g a.i./ha/m crown height: Dursban 960, I-4 72
Protocol: In three replications, in plots of a size of about 20 m^2, citrus trees of the cultivar “Oro Nules” are treated against Pseudococcus citri. The application is carried out using a high-pressure sprayer. Here, the active compound Example (I-4) (240 SC), in a tank mix with 0.1% a.i. of rapeseed oil methyl ester (500 EW), is tested against the commercial standard Dursban (480 EC), at the stated application rates. The application rate is 2500 l of water/ha.
Evaluation is carried out 62 days after the treatment by rating the kill of the larvae on the fruits.

Dysmicoceus brevipes = assay: Example 30a: guyabano tree treated against Dysmicoceus brevipes; settings: on fruits, g a.i./m crown height: Lorsban 180, I-4 48
Protocol: In three replications, in each case one guyabano tree is treated against Dysmicoceus brevipes. Here, the active compound Example (I-4) (240 SC), in a tank mix with 0.1% of rapeseed oil methyl ester (500 EW), is, at the stated application rate, tested against the commercial standard Lorsban (500 EC), at the stated application rate. The application is carried out using a motor-operated knapsack sprayer. Here, each plant is treated with spray liquor.
Evaluation is carried out 3, 7 and 14 days after the treatment by rating the kill in percent on the fruits.

Aspidiotus neri = assay: Example 20: lime trees treated against Aspidiotus neri; settings: 167 d after treatment, on fruits, % a.i.: Dursban 0.096, Juvinal 0.005, I-4 0.0072
Protocol: In four replications, about 5-year-old lime trees of the cultivar “Fino” are treated against Aspidiotus neri. The application is carried out using a knapsack sprayer. Here, the active compound Example (I-4) (240 SC) in a tank mix with 0.1% a.i. of rapeseed oil methyl ester (500 EW) at the stated application rate is tested against the standards Dursban (480 EC) and Juvinal (100 EC) at the stated amounts, applied once. The application rate is 3000 l of water/ha per tree.
Evaluation is carried out 167 days after the treatment by rating the kill on the fruits.

Pulvinaria aurantii = assay: Example 11: satsuma trees treated against Pulvinaria aurantii; settings: 41 days after treatment; live animals counted, Henderson and Tilton; satsuma tree; % a.i.: buprofezin 0.025, I-4 0.0144
Protocol: In three replications, in each case one about 4-year-old satsuma tree of the cultivar “Nankan 20” is treated against Pulvinaria aurantii. Here, the active compound Example (I-4) (240 SC) in a tank mix with 0.2% of rapeseed oil methyl ester (500 EW) at the stated application rate is tested against the commercial standard buprofezin at the stated application rate. The application is carried out using a motor-operated knapsack sprayer. Here, each plant is treated with 400 ml of spray liquor.
Evaluation is carried out before and 41 days after the treatment by counting the live animals. The efficacy in percent is then calculated according to Henderson and Tilton.

[2] = test system: Pseudaulacaspis pentagons; assay: Example 22: peach trees treated against Pseudaulacaspis pentagons; settings: crawlers on shoots, g a.i./ha/m crown height: Esteem 98, I-4 120
Protocol: In ten replications, on about 46 m^2, peach trees are treated against Pseudaulacaspis pentagons. Two applications are carried out at an interval of 57 days using a sprayer operated with pressurized air. Here, the active compound Example (I-4) (240 SC) in a tank mix with 0.2% of Dynamic (910 XL) is applied at the stated application rate and the commercial standard Esteem (35 WP) is applied at the stated application rate. The application rate is 935 l of water/ha.
Evaluation is carried out 35 and 79 days after the last treatment by rating the kill of the crawlers on the shoots.

[3] = test system: Pseudaulacaspis prunicola; assay: Example 23: Japanese apricot trees treated against Pseudaulacaspis prunicola; settings: 58 days after treatment, nymphs on shoots, % a.i.: Supracide EC 0.04, I-4 0.0075
Protocol: In six replications, about 16-year-old Japanese apricot trees of the cultivar “Shirokag” are treated against Pseudaulacaspis prunicola. The application is carried out using a sprayer. Here, the active compound Example (I-4) (200 SC) is tested against the commercial standard Supracide EC (400 EC), at the stated application rates. The application rate is 1500 l of water/ha.
Evaluation is carried out 58 days after the treatment by rating the kill of the nymphs on the shoots.

CCOC(=O)OC1=C(c2cc(C)ccc2C)C(=O)NC12CCC(OC)CC2 (centres unmarked) [Example (I-4)] was tested. Which “Rhodobium porosum Kill (%) 7 d” value (Rhodobium porosum; 7 d after second treatment) did it give?
Its value is 97%.

What about the “Rhodobium porosum Kill (%) 14 d” value (Rhodobium porosum; 14 d after second treatment) of the same compound?
Its value is 96%.

What about the “Kill (%) 16 d” value ([1]; 16 d after treatment) of the same compound?
Its value is 81.8%.

And the “Kill (%) 35 d” value ([1]; 35 d after treatment)?
Its value is 75%.

What about the “Macrosiphum euphorbiae Kill (%) 7 d” value (Macrosiphum euphorbiae; 7 d after second treatment) of the same compound?
The value was 62.2%.

What about the “Macrosiphum euphorbiae Kill (%) 14 d” value (Macrosiphum euphorbiae; 14 d after second treatment) of the same compound?
The value was 94%.

What about the “Kill (%) 6 d” value (Orthezia praelonga; 6 d after treatment) of the same compound?
The value was 94%.

What about the “Kill (%) 16 d” value (Orthezia praelonga; 16 d after treatment) of the same compound?
Its value is 76%.

What about the “Kill (%) 62 days” value (Pseudococcus citri) of the same compound?
The value was 99%.

What about the “Kill (%) 3 days” value (Dysmicoceus brevipes; 3 days after treatment) of the same compound?
The value was 89.8%.

And the “Kill (%) 7 days” value (Dysmicoceus brevipes; 7 days after treatment)?
The value was 100%.

What about the “Kill (%) 14 days” value (Dysmicoceus brevipes; 14 days after treatment) of the same compound?
The value was 100%.

What about the “Kill (%) 167 d” value (Aspidiotus neri) of the same compound?
The value was 96.2%.

And the “Effect (%)” value (Pulvinaria aurantii)?
Its value is 100%.

What about the “Kill (%) 35 d” value ([2]; 35 d after last of two treatments) of the same compound?
Its value is 90%.

And the “Kill (%) 79 d” value ([2]; 79 d after last of two treatments)?
Its value is 87%.

What about the “Kill (%) 58 days” value [3] of the same compound?
Its value is 92.3%.
